Source: EP0319228A2, “Novel compounds” (BEECHAM GROUP PLC, priority 1987, dated 1989)
≈ marks a conversion by molar mass, not a printed value. Like-named read-outs stand apart in the source and are kept apart here.

Assays:
Assay type in all cases: cell-based
[1] = test system: herpes simplex virus 2 (HSV-2; strain MS); assay: Plaque reduction test for herpes simplex virus 2
Procedure: (§1) Cells (Vero or MRC-5) were grown to confluence in 24 well multi-dishes (well diameter = 1.5cm). The drained cell monolayers were each infected with approximately 50 infectious particles of herpes simplex virus 1 (HSV-1; strain HFEM) or herpes simplex virus 2 (HSV-2; strain MS) in 100µl of phosphate-buffered saline. The virus was absorbed for 1 hour at room temperature. After adsorption, residual inoculum was removed from each well and replaced with 0.5ml of Eagle's MEM containing 5% newborn calf serum and 0.9% agarose (A37). Once the agarose had set, dilutions of the test compound, which had been prepared in Eagle's MEM (containing 5% newborn calf serum), were added, each well receiving 0.5ml of liquid overlay. The test compound was diluted to give the following series of concentrations: 200, 60, 20, 6....0.06µg/ml; final concentrations in the assay ranged, therefore, between 100µg/ml and 0.03µg/ml. The infected cultures were incubated at 37°C in a humidified atmosphere of 5% CO₂ until plaques were clearly visible (2 or 3 days for Vero cells, usually […] for MRC-5 cells).
(§2) Cultures from 1 and 2 were fixed in formol saline, the agarose overlays were carefully washed off, and then the cell monolayers were stained with carbol fuchsin. A stereo microscope was used to count plaques. The IC₅₀ (concentration of drug which inhibits the number of plaques formed by 50% relative to the number of plaques observed in virus control monolayers) of the test compound was calculated. In addition, the monolayers were examined for evidence of drug-induced cytotoxicity; the minimum concentration at which cytotoxicity occurs was recorded.

[2] = test system: herpes simplex virus 1 (HSV-1; strain HFEM); assay: Plaque reduction test for herpes simplex virus 1; details: read-out: IC₅₀ Herpes Simplex virus Type 1 HFEM strain in Vero cells
Procedure: as §1, §2

[3] = test system: visna virus (strain K184); assay: CPE inhibition test (established monolayer) for lentiviruses; details: Visna-maedi virus, read-out: MIC Visna Virus K184 strain in SCP cells
Procedure: 3 x 10⁴ sheep choroid plexus (SCP) cells were plated into individual wells of a 96 well microtitre plate in 100µl of Eagle's MEM with Hanks' salts containing 10% heat inactivated foetal calf serum (FCS). When monolayers had become established (after 1 or 2 days growth) they were washed with 200µl of maintenance medium (Eagle's MEM with Hanks' salts containing 0.5% FCS) and infected with 100µl of visna virus (strain K184) in maintenance medium (20 TCID₅₀/ml). Test samples were diluted with maintenance medium in further 96 well microtitre plates over the range 200-0.06µg/ml by 3-fold dilution steps. 100µl of the diluted samples was then transferred directly onto virus-infected monolayers (final concentration range therefore 100-0.03µg/ml) and incubated at 37°C in a humidified atmosphere containing, 5% CO₂ until virus-induced CPE was maximal in the untreated virus-infected controls (usually 12-14 days). The plates were fixed with formal saline and stained with crystal violet. Virus-induced CPE was then scored microscopically and the minimum concentration of sample giving complete protection of the cell monolayers (MIC) determined.

[4] = test system: varicella zoster virus (VZV; Ellen strain); assay: Plaque reduction test for varicella zoster virus
Procedure: MRC-5 cells were grown to confluence in 24 well multi-dishes (well diameter = 1.5cm). The drained cell monolayers were each infected with approximately 50 infectious particles of varicella zoster virus (VZV; Ellen strain) in 100µl of phosphate-buffered saline. The virus was adsorbed for 1 hour at room temperature. After adsorption, residual inoculum was removed from each well and replaced with 0.5ml of Eagles's MEM containing 5% […] foetal calf serum and 0.9% agarose (A37). Once the agarose had set, dilutions of the test compound, which had been prepared in Eagle's MEM (containing 5% heat-inactivated foetal calf serum), were added, each well receiving 0.5ml of liquid overlay. The test compound was diluted to give the following series of concentrations: 200, 60, 20, 6....0.06µg/ml; final concentrations in the assay ranged, therefore, between 100µg/ml and 0.03µg/ml. The infected cultures were incubated at 37°C in a humidified atmosphere of 5% CO₂ until plaques were clearly visible (5 or 6 days).
as §2

[5] = Human alphaherpesvirus 2, MRC5, read-out: IC₅₀ Herpes Simplex virus Type 2 MS strain in MRC-5 cells
[6] = Human alphaherpesvirus 3, MRC5, read-out: IC₅₀ Varicella Zoster virus Ellen strain in MRC-5 cells
[7] = Human alphaherpesvirus 2, MRC5, plaque reduction, MS strain, MRC-5 cells, read-out: IC₅₀ Herpes Simplex virus Type 2 MS strain in MRC-5 cells
[8] = Human alphaherpesvirus 1, plaque reduction, HFEM strain, Vero cells
[9] = minimum concentration giving complete protection of the cell monolayers from virus-induced CPE, sheep choroid plexus (SCP) cells
[10] = Human alphaherpesvirus 3, MRC5, plaque reduction, Ellen strain, MRC-5 cells, read-out: IC₅₀ Varicella Zoster virus Ellen strain in MRC-5 cells

IC50 [2, 8]	MIC [3, 9]	SMILES	IC50 [1, 5]	IC50 ([2]; Human alphaherpesvirus 1, Vero)	MIC ([3]; in Ovis aries)	IC50 [4, 6]	IC50 [1, 7]	IC50 [4, 10]
–	–	CCOP(=O)(COCCOn1cnc2c(=O)[nH]c(N)nc21)OCC [Example 3, 9-[2-(Diethoxyphosphorylmethoxy)ethoxy]guanine]	> 100 µg/mL	> 100 µg/mL	10 µg/mL (≈ 27.7 µM)	51 µg/mL (≈ 141 µM)	–	–
> 100 µg/mL	3 µg/mL (≈ 10.4 µM)	Nc1ncnc2c1ncn2OCCOCP(=O)(O)O [Example 2, 9-[2-(Phosphonemethoxy)ethoxy]adenine]	–	–	–	–	69 µg/mL (≈ 239 µM)	80 µg/mL (≈ 277 µM)
–	–	CCOP(=O)(COCCOn1cnc2c(N)ncnc21)OCC [Example 1, 9-[2-(Diethoxyphosphorylmethoxy)ethoxy]adenine]	> 100 µg/mL	> 100 µg/mL	100 µg/mL (≈ 290 µM)	> 100 µg/mL	–	–
–	–	CCOP(=O)(O)COC(CO)COn1cnc2c(N)ncnc21 (centres unmarked) [Example 8, 9-[2-[ethoxy(hydroxy)phosphorylmethoxy]-3-hydroxypropoxy]adenine]	> 100 µg/mL	> 100 µg/mL	1 µg/mL (≈ 2.88 µM)	60 µg/mL (≈ 173 µM)	–	–
1.1 µg/mL (≈ 3.6 µM)	< 0.003 µg/mL	Nc1nc2c(ncn2OCCOCP(=O)(O)O)c(=O)[nH]1 [Example 4, 9-[2-(Phosphonomethoxy)ethoxy]guanine]	–	–	–	–	0.08 µg/mL (≈ 0.262 µM)	0.06 µg/mL (≈ 0.197 µM)
3.7 µg/mL (≈ 11.4 µM)	< 0.03 µg/mL	Nc1nc(Cl)c2ncn(OCCOCP(=O)(O)O)c2n1 [Example 13, 2-Amino-6-chloro-9-[2-(phosphonomethoxy)ethoxy]purine]	–	–	–	–	–	0.5 µg/mL (≈ 1.54 µM)
24 µg/mL (≈ 78.9 µM)	0.3 µg/mL (≈ 0.986 µM)	Nc1nc(N)c2ncn(OCCOCP(=O)(O)O)c2n1 [Example 12, 2,6-Diamino-9-[2-phosphonomethoxy)ethoxy]purine]	–	–	–	–	–	< 3 µg/mL
> 100 µg/mL	0.3 µg/mL (≈ 0.94 µM)	Nc1ncnc2c1ncn2OCC(CO)OCP(=O)(O)O (centres unmarked) [Example 7, 9-[3-Hydroxy-2-(phosphonomethoxy)propoxy]adenine]	–	–	–	–	> 100 µg/mL	66 µg/mL (≈ 207 µM)
–	–	CCOP(=O)(COCCOn1cnc2c(N)nc(N)nc21)OCC [Example 11, 2,6-Diamino-9-[2-(diethoxyphosphorylmethoxy)ethoxy]purine]	–	> 100 µg/mL	30 µg/mL (≈ 83.3 µM)	> 100 µg/mL	–	–
29 µg/mL (≈ 91.4 µM)	–	Nc1nc2c(ncn2OCC2COP(=O)(O)CO2)c(=O)[nH]1 (centres unmarked) [Example 15, 9-[(2-Hydroxy-2-oxo-1,4,2-dioxaphosphorinan-5-yl)methoxy]guanine]	–	–	–	–	–	< 3 µg/mL
–	–	CCOP(=O)(O)COCCOn1cnc2c(=O)[nH]c(N)nc21 [Example 5, 9-[2-[Ethoxy(hydroxy)phosphorylmethoxy)ethoxy]guanine]	–	59 µg/mL (≈ 177 µM)	–	< 3 µg/mL	–	–
< 3 µg/mL	< 0.03 µg/mL	COc1nc(N)nc2c1ncn2OCCOCP(=O)(O)O [Example 14, 2-Amino-6-methoxy-9-[2-(phosphonomethoxy)ethoxy]purine]	–	–	–	–	–	< 0.03 µg/mL
17 µg/mL (≈ 50.7 µM)	< 0.003 µg/mL	Nc1nc2c(ncn2OCC(CO)OCP(=O)(O)O)c(=O)[nH]1 (centres unmarked) [Example 10, 9-[3-Hydroxy-2-(phosphonomethoxy)propoxy]guanine]	–	–	–	–	7.3 µg/mL (≈ 21.8 µM)	21 µg/mL (≈ 62.6 µM)
